From US20100227872A1, “PYRAZINE DERIVATIVES” (priority 2007, published 2010)

Legend:
Assay type in all cases: cell-based
[1] = biological target: T1, Human Nav1.8 (Homo sapiens, UniProt Q9Y5Y9); experiment: VIPR Assay for Nav1.8 Compounds (FRET membrane potential, deltamethrin opener); details: HEK293 cells expressing Human Nav1.8; deltamethrin as opener; average of replicates
T1 construct: expressed in transfected cells; host or cells: HEK293 (selected with Geneticine)

[2] = tested on: tetrodotoxin-sensitive voltage-gated sodium channels including NaV1.2, NaV1.3 and NaV1.7; experiment: TTX-S Assay in SHSY-5Y cell line (VIPR, veratridine opener); details: read-out: TTX-S IC50, veratridine 50 μM as opener, average of replicates
[3] = biological target: T2, Human Nav1.5 (Homo sapiens, UniProt Q14524); experiment: Nav1.5 Assay (VIPR, as Nav1.8 assay); details: HEK293 cells expressing Human Nav1.5; average of replicates
T2 construct: expressed in transfected cells; host or cells: HEK293
T2 sequence (Q14524 whole entry): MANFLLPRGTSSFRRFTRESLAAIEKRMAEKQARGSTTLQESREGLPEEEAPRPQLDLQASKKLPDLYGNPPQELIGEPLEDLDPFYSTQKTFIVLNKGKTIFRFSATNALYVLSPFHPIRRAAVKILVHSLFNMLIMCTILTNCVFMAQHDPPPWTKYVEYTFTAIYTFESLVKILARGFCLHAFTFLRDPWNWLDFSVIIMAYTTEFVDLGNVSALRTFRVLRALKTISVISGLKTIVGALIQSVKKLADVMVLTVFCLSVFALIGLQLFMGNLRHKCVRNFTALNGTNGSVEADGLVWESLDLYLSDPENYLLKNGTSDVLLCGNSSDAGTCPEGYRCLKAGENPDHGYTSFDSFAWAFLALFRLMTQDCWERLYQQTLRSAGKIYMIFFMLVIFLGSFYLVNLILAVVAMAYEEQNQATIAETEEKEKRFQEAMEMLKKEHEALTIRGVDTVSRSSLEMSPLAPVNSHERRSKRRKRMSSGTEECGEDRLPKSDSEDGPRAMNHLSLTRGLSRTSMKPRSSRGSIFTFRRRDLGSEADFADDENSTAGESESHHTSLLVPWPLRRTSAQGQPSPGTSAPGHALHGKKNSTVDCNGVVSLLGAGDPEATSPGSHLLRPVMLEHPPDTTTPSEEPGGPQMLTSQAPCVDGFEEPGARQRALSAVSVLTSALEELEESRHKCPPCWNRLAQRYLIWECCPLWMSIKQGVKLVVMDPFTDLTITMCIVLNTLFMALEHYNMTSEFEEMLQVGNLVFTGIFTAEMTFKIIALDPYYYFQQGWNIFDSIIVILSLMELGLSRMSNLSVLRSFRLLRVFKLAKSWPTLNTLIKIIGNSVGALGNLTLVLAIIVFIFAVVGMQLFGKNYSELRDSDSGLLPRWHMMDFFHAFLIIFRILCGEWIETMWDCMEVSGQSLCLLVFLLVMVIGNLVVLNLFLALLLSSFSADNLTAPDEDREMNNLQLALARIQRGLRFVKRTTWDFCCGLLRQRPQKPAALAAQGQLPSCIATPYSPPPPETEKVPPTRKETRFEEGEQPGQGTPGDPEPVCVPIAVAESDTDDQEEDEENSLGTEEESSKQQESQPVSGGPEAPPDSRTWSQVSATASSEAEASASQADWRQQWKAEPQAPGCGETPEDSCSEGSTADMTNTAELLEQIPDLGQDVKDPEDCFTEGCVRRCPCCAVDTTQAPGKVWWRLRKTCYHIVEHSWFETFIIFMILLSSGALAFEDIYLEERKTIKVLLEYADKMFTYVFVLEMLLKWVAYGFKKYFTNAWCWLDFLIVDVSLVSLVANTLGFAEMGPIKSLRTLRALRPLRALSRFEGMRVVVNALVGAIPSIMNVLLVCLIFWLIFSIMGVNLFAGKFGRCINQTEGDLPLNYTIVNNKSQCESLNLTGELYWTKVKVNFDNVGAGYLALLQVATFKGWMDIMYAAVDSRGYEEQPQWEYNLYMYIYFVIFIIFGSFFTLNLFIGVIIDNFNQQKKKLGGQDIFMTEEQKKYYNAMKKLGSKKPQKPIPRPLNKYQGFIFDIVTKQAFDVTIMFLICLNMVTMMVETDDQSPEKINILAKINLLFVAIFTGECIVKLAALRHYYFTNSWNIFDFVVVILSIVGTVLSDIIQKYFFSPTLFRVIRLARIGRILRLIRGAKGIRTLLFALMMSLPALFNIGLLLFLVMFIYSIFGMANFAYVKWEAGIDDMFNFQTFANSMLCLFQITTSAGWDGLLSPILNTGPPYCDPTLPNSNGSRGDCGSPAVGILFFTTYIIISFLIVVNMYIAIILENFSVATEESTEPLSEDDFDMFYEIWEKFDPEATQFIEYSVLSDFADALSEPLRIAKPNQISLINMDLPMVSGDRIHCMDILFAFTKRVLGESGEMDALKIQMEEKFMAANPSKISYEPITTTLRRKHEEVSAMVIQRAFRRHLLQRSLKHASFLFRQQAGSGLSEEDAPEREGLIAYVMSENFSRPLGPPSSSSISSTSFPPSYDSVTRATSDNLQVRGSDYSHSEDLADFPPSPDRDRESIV
Experimental: The Nav1.5 assay is performed in HEK293 cells expressing Human Nav1.5 in the same way as the Nav1.8 assay described above.

T1 sequence (Q9Y5Y9 whole entry): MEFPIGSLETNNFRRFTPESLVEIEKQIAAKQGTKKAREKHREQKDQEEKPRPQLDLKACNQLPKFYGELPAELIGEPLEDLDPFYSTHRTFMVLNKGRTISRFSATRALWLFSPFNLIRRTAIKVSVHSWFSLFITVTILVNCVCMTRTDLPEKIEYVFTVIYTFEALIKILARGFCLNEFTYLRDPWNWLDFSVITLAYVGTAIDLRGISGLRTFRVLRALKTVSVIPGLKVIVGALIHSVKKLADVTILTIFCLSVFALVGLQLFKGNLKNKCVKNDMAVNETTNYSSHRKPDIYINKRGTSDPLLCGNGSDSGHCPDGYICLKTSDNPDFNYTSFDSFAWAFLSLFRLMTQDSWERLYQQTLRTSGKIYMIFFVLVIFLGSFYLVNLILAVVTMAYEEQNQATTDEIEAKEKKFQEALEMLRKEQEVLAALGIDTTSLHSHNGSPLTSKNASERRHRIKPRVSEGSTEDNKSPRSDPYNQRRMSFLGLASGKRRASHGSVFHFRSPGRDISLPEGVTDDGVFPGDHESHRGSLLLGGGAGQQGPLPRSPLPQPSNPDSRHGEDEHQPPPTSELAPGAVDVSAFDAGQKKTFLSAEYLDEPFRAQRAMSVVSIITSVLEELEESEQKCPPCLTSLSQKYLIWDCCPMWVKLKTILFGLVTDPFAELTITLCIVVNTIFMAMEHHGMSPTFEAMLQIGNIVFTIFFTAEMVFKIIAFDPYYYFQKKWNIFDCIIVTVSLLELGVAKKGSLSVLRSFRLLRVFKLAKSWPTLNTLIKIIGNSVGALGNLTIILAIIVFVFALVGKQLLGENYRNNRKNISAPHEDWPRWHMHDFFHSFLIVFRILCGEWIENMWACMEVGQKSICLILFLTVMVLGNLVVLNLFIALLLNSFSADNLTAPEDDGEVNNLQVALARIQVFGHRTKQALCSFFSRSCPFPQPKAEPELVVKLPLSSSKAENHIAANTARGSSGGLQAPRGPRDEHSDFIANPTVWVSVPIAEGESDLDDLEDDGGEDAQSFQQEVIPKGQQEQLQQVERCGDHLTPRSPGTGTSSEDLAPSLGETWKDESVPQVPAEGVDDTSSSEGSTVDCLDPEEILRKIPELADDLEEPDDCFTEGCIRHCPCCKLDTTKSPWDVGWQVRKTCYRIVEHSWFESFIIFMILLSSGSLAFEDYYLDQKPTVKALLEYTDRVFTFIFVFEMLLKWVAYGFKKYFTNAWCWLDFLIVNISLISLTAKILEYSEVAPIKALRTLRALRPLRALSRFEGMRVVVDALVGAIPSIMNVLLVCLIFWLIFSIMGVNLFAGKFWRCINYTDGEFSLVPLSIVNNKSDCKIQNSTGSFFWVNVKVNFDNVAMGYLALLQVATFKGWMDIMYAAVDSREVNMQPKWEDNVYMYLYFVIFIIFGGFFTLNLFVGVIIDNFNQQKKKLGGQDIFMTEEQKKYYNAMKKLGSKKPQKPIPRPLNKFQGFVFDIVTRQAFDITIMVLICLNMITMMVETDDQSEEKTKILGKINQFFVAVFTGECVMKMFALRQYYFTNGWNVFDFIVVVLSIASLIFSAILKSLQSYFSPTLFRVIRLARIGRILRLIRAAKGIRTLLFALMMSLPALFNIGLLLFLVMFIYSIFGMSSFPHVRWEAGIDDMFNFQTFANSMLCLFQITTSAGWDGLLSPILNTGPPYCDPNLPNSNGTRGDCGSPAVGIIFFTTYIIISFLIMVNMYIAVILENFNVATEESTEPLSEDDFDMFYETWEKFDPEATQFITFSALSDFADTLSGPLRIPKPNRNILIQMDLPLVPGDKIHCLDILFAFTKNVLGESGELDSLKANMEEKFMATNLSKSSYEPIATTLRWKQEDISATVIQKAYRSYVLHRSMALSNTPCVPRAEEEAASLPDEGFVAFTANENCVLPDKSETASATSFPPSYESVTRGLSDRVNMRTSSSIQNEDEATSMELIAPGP

Structure (SMILES) | IC50 [1] | IC50 [2] | IC50 [3]
Cc1nocc1C(=O)Nc1cnc(-c2ccccc2OC(F)(F)F)c(N)n1 [Example 1, N-{6-Amino-5-[2-(trifluoromethoxy)phenyl]pyrazin-2-yl}-3-methylisoxazole-4-carboxamide] | 3.6 µM | 30 µM | > 32 µM
Cc1nocc1C(=O)Nc1cnc(-c2ccccc2C(F)(F)F)c(N)n1 [Example 2, N-{6-Amino-5-[2-(trifluoromethyl)phenyl]pyrazin-2-yl}-3-methylisoxazole-4-carboxamide] | 8.7 µM | > 32 µM | –
Cc1nocc1C(=O)Nc1cnc(-c2cc(Cl)ccc2OC(F)(F)F)c(N)n1 [Example 3, N-{6-Amino-5-[5-chloro-2-(trifluoromethoxy)phenyl]pyrazin-2-yl}-3-methylisoxazole-4-carboxamide] | 4.3 µM | 16 µM | > 32 µM
CCn1nccc1C(=O)Nc1cnc(-c2ccccc2OC(F)(F)F)c(N)n1 [Example 4, N-{6-Amino-5-[2-(trifluoromethoxy)phenyl]pyrazin-2-yl}-1-ethyl-1H-pyrazole-5-carboxamide] | 27 µM | > 32 µM | > 32 µM
CC(C)n1nccc1C(=O)Nc1cnc(-c2ccccc2OC(F)(F)F)c(N)n1 [Example 5, N-{6-Amino-5-[2-(trifluoromethoxy)phenyl]pyrazin-2-v1}-1-isopropyl-1H-pyrazole-5-carboxamide] | 19 µM | 29 µM | > 32 µM
COCc1nocc1C(=O)Nc1cnc(-c2ccccc2OC(F)(F)F)c(N)n1 [Example 6, N-{6-Amino-5-[2-(trifluoromethoxy)phenyl]pyrazin-2-yl}-3-(methoxymethyl)isoxazole-4-carboxamide] | 20 µM | 19 µM | > 32 µM
COCc1nocc1C(=O)Nc1cnc(-c2cc(Cl)ccc2OC(F)(F)F)c(N)n1 [Example 7] | 4.6 µM | 17 µM | 21 µM
COCc1nocc1C(=O)Nc1cnc(-c2cc(F)ccc2C(F)(F)F)c(N)n1 [Example 8, N-{6-Amino-5-[5-fluoro-2-(trifluoromethyl)phenyl]pyrazin-2-yl}-3-(methoxymethyl)isoxazole-4-carboxamide] | 11 µM | – | > 32 µM
COCc1oncc1C(=O)Nc1cnc(-c2ccccc2OC(F)(F)F)c(N)n1 [Example 9, N-{6-Amino-5-[2-(trifluoromethoxy)phenyl]pyrazin-2-yl}-5-(methoxymethyl)isoxazole-4-carboxamide] | 20 µM | 30 µM | > 32 µM
Cc1nocc1C(=O)Nc1cnc(-c2cc(F)ccc2C(F)(F)F)c(N)n1 [Example 10, N-{6-amino-5-[5-fluoro-2-(trifluoromethyl)phenyl]pyrazin-2-yl}-3-methylisoxazole-4-carboxamide] | 4.7 µM | > 32 µM | > 32 µM
Cn1nccc1C(=O)Nc1cnc(-c2cc(Cl)ccc2OC(F)(F)F)c(N)n1 [Example 11, N-{6-Amino-5-[5-chloro-2-(trifluoromethoxy)phenyl]pyrazin-2-yl}-methyl-1H-pyrazole-5-carboxamide] | 12 µM | > 32 µM | > 32 µM
Nc1nc(NC(=O)c2conc2C(F)(F)F)cnc1-c1ccccc1OC(F)(F)F [Example 12, N-{6-Amino-5-[2-(trifluoromethoxy)phenyl]pyrazin-2-yl}-3-(trifluoromethyl)isoxazole-4-carboxamide] | 2.8 µM | 21 µM | > 32 µM
Cc1nocc1C(=O)Nc1cnc(-c2cc(F)ccc2OC(F)(F)F)c(N)n1 [Example 13, N-{6-Amino-5-[5-fluoro-2-(trifluoromethoxy)phenyl]pyrazin-2-yl}-3-methylisoxazole-4-carboxamide] | 3.8 µM | > 32 µM | > 32 µM
Nc1nc(NC(=O)c2conc2C(F)(F)F)cnc1-c1cc(F)ccc1C(F)(F)F [Example 14, N-{6-Amino-5-[5-fluoro-2-(trifluoromethyl)phenyl]ovrazin-2-yl}-3-trifluoromethylisoxazole-4-carboxamide] | 2.5 µM | 31 µM | > 32 µM
Cn1nccc1C(=O)Nc1cnc(-c2cc(F)ccc2OC(F)(F)F)c(N)n1 [Example 15] | 16 µM | > 32 µM | > 32 µM
CCOc1ccc(OC(F)(F)F)c(-c2ncc(NC(=O)c3ccnn3C)nc2N)c1 [Example 16, N-{6-Amino-5-[5-ethoxy-2-(trifluoromethoxy)phenyl]pyrazin-2-yl}-1-methyl-1H-pyrazole-5-carboxamide] | 19 µM | – | > 32 µM
CCOc1ccc(OC(F)(F)F)c(-c2ncc(NC(=O)c3conc3C)nc2N)c1 [Example 17, N-(6-Amino-5-[5-ethoxy-2-{trifluoromethoxy)phenyl]pyrazin-2-yl}-3-methylisoxazole-4-carboxamide] | 1.9 µM | – | > 32 µM
